Test results: ChEMBL document CHEMBL5108062 (J Med Chem, 2022)

Biological target: Dipeptidyl peptidase 4 (Homo sapiens, UniProt P27487)
Experiment: Inhibition of human recombinant DPP4 using H-Gly-Pro-AMC as substrate incubated for 30 mins by fluorescence based microplate reader assay

Dipeptidyl peptidase 4, sequence (P27487 whole entry): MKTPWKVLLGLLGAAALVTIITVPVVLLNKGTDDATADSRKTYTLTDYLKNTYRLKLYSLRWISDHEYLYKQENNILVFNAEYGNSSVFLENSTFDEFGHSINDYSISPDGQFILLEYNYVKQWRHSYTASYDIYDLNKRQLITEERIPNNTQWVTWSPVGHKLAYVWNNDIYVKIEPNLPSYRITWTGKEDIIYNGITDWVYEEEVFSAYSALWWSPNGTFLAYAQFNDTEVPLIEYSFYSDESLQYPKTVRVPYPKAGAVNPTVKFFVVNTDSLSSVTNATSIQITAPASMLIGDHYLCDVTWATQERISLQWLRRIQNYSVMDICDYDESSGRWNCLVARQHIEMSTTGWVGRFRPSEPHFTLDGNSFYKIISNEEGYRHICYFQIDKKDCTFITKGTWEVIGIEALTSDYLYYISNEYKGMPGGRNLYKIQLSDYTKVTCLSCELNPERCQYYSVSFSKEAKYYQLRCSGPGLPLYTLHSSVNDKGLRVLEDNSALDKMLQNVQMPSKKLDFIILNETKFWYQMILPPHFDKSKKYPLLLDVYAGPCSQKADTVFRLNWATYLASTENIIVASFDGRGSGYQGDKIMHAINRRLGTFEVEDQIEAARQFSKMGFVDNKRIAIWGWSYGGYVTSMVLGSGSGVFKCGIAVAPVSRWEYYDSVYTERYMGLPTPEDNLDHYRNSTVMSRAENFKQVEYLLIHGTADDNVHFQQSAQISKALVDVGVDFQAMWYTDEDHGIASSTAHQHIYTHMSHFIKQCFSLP

IC50: 327 µM
SMILES: COc1cc(S(N)(=O)=O)ccc1OCCC(N=[N+]=[N-])C1COc2ccccc2O1 (stereo unspecified)
